Source: paper PMC11600510 (Journal of Chemical Information and Modeling, 2024)

How the values were obtained:
Vero E6 cells = assay: MTT toxicity assay in Vero E6 cells; assay type: cell-based; settings: 48 h
Procedure: Chemical compounds were dissolved and serially diluted in DMSO. Their cytotoxicity was assessed using an MTT assay. Briefly, HEK293T, SH-SY5Y or Vero E6 cells were cultured in 96-well plates (4 × 10^4 cells/well) at 37 °C in a 5% CO2 atmosphere. Cells were treated for 48 h with varying concentrations of the compounds (100–0.1 μM) or solvent. […] Treated cells were incubated for 4 h with […] MTT (Applichem). After incubation, the MTT-containing medium was removed and formazan crystals were dissolved in DMSO. The optical density (OD) of formazan solution at 570 and 630 nm was measured in a SPARK plate reader (Tecan).

[1] = biological target: T1, Spike RBD/ACE2 (19–615) interaction (Severe acute respiratory syndrome coronavirus 2, UniProt P0DTC2); assay: cell-based; assay type: cell-based, SARS-CoV-2
T1 construct: S protein RBD (aa residues 319–541) of SARS-CoV-2; expressed in transfected cells; host or cells: HEK293T

E. coli WP2 uvrA strain = assay: Microbial mutagenicity assay (Ames test); settings: positive control
SARS-CoV-2 [2] = assay: microbe, parasite or virus in culture; assay type: cell-based
SARS-CoV-2 pseudovirus = assay: microbe, parasite or virus in culture; assay type: cell-based; settings: Severe acute respiratory syndrome-related coronavirus, SH-SY5Y, read-out: IC50, inhibition of pseudovirus cell entry
SARS-CoV-2 [3] = assay type: cell-based
[4] = HEK-293T, 48 h, read-out: suppression of Spike RBD/ACE2 (19–615) interaction

Clc1ccc(/C=C/C[n+]2cn(Cc3ccc4ccccc4c3)c3ccccc32)cc1.[Br-] [CKP-32, (E)-3-(3-(4-Chlorophenyl)allyl)-1-(naphthalen-2-ylmethyl)-1H-benzo[d]imidazol-3-ium Bromide]
melting point: 166 to 167 °C | toxicity against Vero E6 cells (Vero E6 cells): toxic | inhibition at 10 µM [1, 4]: 70%

Oc1cccc2c1ncn2Cc1ccc(-c2ccccc2)cc1 [CKP-30, 1-([1,1′-Biphenyl]-4-ylmethyl)-1H-benzo[d]imidazol-4-ol]
melting point: 258 to 259 °C | activity on Spike RBD/ACE2 (19–615) interaction (in words) [1]: none of the 4-hydroxy congeners of 28 and 29, compounds 31 (CKP-26) and 32 (CKP-30) maintained inhibitory activity

COS(C)(=O)=O [methyl methanesulfonate, reference compound]
mean revertants (E. coli WP2 uvrA strain; 2.5 μL/plate, –S9): >300

COc1cccc2c1[n+](C/C=C/c1ccc(Cl)cc1)cn2Cc1ccc(-c2ccccc2)cc1.[Br-]
melting point: 205 to 206 °C

COc1cccc2c1[n+](C/C=C/c1ccc([N+](=O)[O-])cc1)cn2Cc1ccc(-c2ccccc2)cc1.[Br-] [CKP-40, (E)-1-([1,1′-Biphenyl]-4-ylmethyl)-4-methoxy-3-(3-(4-nitrophenyl)allyl)-1H-benzo[d]imidazol-3-ium Bromide]
melting point: 203 to 204 °C | activity on Spike RBD/ACE2 (19–615) interaction (in words) [1]: active | inhibition at 25 µM [1, 4]: 14% | effect on the cytopathic effect of SARS-CoV-2 (in words) (SARS-CoV-2 [2]): not protective against SARS-CoV-2

c1ccc2cc(CCn3cnc4ccccc43)ccc2c1 [CKP-46, 1-(2-(Naphthalen-2-yl)ethyl)-1H-benzo[d]imidazole]
activity on Spike RBD/ACE2 (19–615) interaction (in words) [1]: activity was retained | inhibition at 1 µM [1, 4]: 20%

O=[N+]([O-])c1ccc(/C=C/C[n+]2cn(Cc3ccc4ccccc4c3)c3ccccc32)cc1.[Br-]
melting point: 189 to 191 °C

COc1cccc2c1ncn2Cc1ccc2cccnc2c1 [CKP-44, 7-((4-Methoxy-1H-benzo[d]imidazol-1-yl)methyl)quinoline]
melting point: 161 to 162 °C | activity on Spike RBD/ACE2 (19–615) interaction (in words) [1]: did not exhibit any effect

c1ccc(-c2ccc(Cn3cnc4ccccc43)cc2)cc1 [CKP-23, 1-([1,1′-Biphenyl]-4-ylmethyl)-1H-benzo[d]imidazole]
melting point: 184 to 186 °C

COc1ccc(Cn2cnc3ccccc32)cc1OC [CKP-24, 1-(3,4-Dimethoxybenzyl)-1H-benzo[d]imidazole]
melting point: 131 to 132 °C

O=[N+]([O-])c1cccc2c1ncn2Cc1ccc2cccnc2c1 [CKP-48, 7-((4-Nitro-1H-benzo[d]imidazol-1-yl)methyl)quinoline]
activity on Spike RBD/ACE2 (19–615) interaction (in words) [1]: showed activity | inhibition at 50 µM [1, 4]: 36%

Oc1cccc2c1ncn2Cc1ccc2ccccc2c1 [CKP-26, 1-(Naphthalen-2-ylmethyl)-1H-benzo[d]imidazol-4-ol]
activity on Spike RBD/ACE2 (19–615) interaction (in words) [1]: none of the 4-hydroxy congeners of 28 and 29, compounds 31 (CKP-26) and 32 (CKP-30) maintained inhibitory activity

O=c1c(Oc2ccc(-c3ccccc3)cc2)coc2cc(O)ccc12 [compound 6659989, 3-(4-biphenylyloxy)-7-hydroxy-4H-chromen-4-one]
IC50 (SARS-CoV-2 pseudovirus): 3.2 ± 0.2 µM | concentration-dependent suppression of Spike RBD/ACE2 (19–615) interaction [1]: suppressed Spike RBD/ACE2 (19–615) interaction in a concentration-dependent manner | effect on Spike RBD/ACE2 (19–615) interaction [1]: suppressed the interaction

O=C(c1ccc(-c2ccccc2)cc1)n1cnc2ccccc21 [compound 5260662, 1-(4-biphenylylcarbonyl)-1H-benzimidazole]
concentration-dependent suppression of Spike RBD/ACE2 (19–615) interaction [1]: suppressed Spike RBD/ACE2 (19–615) interaction in a concentration-dependent manner | effect on Spike RBD/ACE2 (19–615) interaction [1]: suppressed the interaction

COc1cccc2c1[n+](C/C=C/c1ccc(Cl)cc1)cn2Cc1ccc2ccccc2c1.[Br-]
melting point: 228 to 229 °C

Nc1ccc2cc3ccccc3cc2c1 [2-aminoanthracene, reference compound]
mean revertants (E. coli WP2 uvrA strain; 10 μg/plate, +S9): >300

Cc1ccc[n+](CC(=O)c2ccc3c(c2)Cc2ccccc2-3)c1C.[Br-] [compound 5315079, 1-[2-(9H-fluoren-2-yl)-2-oxoethyl]-2,3-dimethylpyridinium bromide]
concentration-dependent suppression of Spike RBD/ACE2 (19–615) interaction [1]: suppressed Spike RBD/ACE2 (19–615) interaction in a concentration-dependent manner | effect on Spike RBD/ACE2 (19–615) interaction [1]: suppressed the interaction

COc1cccc2c1[n+](C/C=C/c1ccc([N+](=O)[O-])cc1)cn2Cc1ccc2ccccc2c1.[Br-] [CKP-42, (E)-4-Methoxy-1-(naphthalen-2-ylmethyl)-3-(3-(4-nitrophenyl)allyl)-1H-benzo[d]imidazol-3-ium Bromide]
melting point: 227 to 228 °C | activity on Spike RBD/ACE2 (19–615) interaction (in words) [1]: active | inhibition at 10 µM [1, 4]: 74%

O=C(O)c1ccc2c(c1)C(=O)N(c1ccc(-c3nnc(-c4ccccc4)o3)cc1)C2=O [compound 5733393, 1,3-dioxo-2-[4-(5-phenyl-1,3,4-oxadiazol-2-yl)phenyl]-5-isoindolinecarboxylic acid]
effect on Spike RBD/ACE2 (19–615) interaction [1]: suppressed the interaction

Nc1cccc2c1ncn2Cc1ccc2cccnc2c1 [CKP-49, 1-(Quinolin-7-ylmethyl)-1H-benzo[d]imidazol-4-amine]
inhibition at 50 µM [1, 4]: 30% | effect on viral load in the cell culture supernatant (in words) (SARS-CoV-2 [3]): reduced the viral load | effect on the cytopathic effect of SARS-CoV-2 (in words) (SARS-CoV-2 [2]): consistently reduced the cytopathic effect

O=C(O)c1ccccc1C(=O)Nc1ccc(Oc2ccc3ccccc3c2)cc1 [compound 6052953, 2-({[4-(2-naphthyloxy)phenyl]amino}carbonyl)benzoic acid]
concentration-dependent suppression of Spike RBD/ACE2 (19–615) interaction [1]: suppressed Spike RBD/ACE2 (19–615) interaction in a concentration-dependent manner | effect on Spike RBD/ACE2 (19–615) interaction [1]: suppressed the interaction

O=[N+]([O-])c1ccc(/C=C/C[n+]2cn(Cc3ccc(-c4ccccc4)cc3)c3ccccc32)cc1.[Br-]
melting point: 236 to 238 °C (dec.)

Oc1ccc(Cn2cnc3ccccc32)cc1O [CKP-35, 4-((1H-Benzo[d]imidazol-1-yl)methyl)benzene-1,2-diol]
melting point: 188 to 190 °C (dec.)

COc1ccc(-c2ccccc2)cc1NCc1ccc2c(c1)OCO2 [compound 5465521, (1,3-benzodioxol-5-ylmethyl)(4-methoxy-3-biphenylyl)amine]
concentration-dependent suppression of Spike RBD/ACE2 (19–615) interaction [1]: suppressed Spike RBD/ACE2 (19–615) interaction in a concentration-dependent manner | effect on Spike RBD/ACE2 (19–615) interaction [1]: suppressed the interaction

O=[N+]([O-])c1cccc2c1ncn2Cc1ccc2ccccc2c1 [CKP-20, 1-(Naphthalen-2-ylmethyl)-4-nitro-1H-benzo[d]imidazole]
activity on Spike RBD/ACE2 (19–615) interaction (in words) [1]: showed activity | inhibition at 50 µM [1, 4]: 51%

O=C(C=Cc1ccc(NC(=O)c2ccccc2-c2ccccc2C(=O)O)cc1)c1ccccc1 [compound 5755483, 2'-({[4-(3-oxo-3-phenyl-1-propen-1-yl)phenyl]amino}carbonyl)-2-biphenylcarboxylic acid]
effect on Spike RBD/ACE2 (19–615) interaction [1]: suppressed the interaction

O=C1CC(c2ccc3ccccc3c2)c2ccc3ccccc3c2N1 (stereo not shown) [compound 5979742, 4-(2-naphthyl)-3,4-dihydrobenzo[h]quinolin-2(1H)-one]
effect on Spike RBD/ACE2 (19–615) interaction [1]: suppressed the interaction

c1ccc2cc(Cn3cnc4ccccc43)ccc2c1 [CKP-22, 1-(Naphthalen-2-ylmethyl)-1H-benzo[d]imidazole]
IC50 (SARS-CoV-2 pseudovirus): 49 ± 2.5 µM | melting point: 139 to 140 °C | IC50 [1]: 55 µM | concentration-dependent suppression of Spike RBD/ACE2 (19–615) interaction [1]: suppressed Spike RBD/ACE2 (19–615) interaction in a concentration-dependent manner | effect on Spike RBD/ACE2 (19–615) interaction [1]: suppressed the interaction | inhibition at 50 µM [1, 4]: 81% | reduction of SARS-CoV-2 levels (viral load) in cell culture supernatant (SARS-CoV-2 [3]): 68% | prevention of infection from the original SARS-CoV-2 in vitro (SARS-CoV-2 [2]): strongly prevented infection | reduction of the cytopathic effect (CPE) of the virus (SARS-CoV-2 [2]): approximately 90%

COc1cccc2c1ncn2Cc1ccc(-c2ccccc2)cc1 [CKP-27, 1-([1,1′-Biphenyl]-4-ylmethyl)-4-methoxy-1H-benzo[d]imidazole]
melting point: 150 to 151 °C | inhibition at 25 µM [1, 4]: 72% | effect on viral load in the cell culture supernatant (in words) (SARS-CoV-2 [3]): reduced the viral load | effect on the cytopathic effect of SARS-CoV-2 (in words) (SARS-CoV-2 [2]): consistently reduced the cytopathic effect

c1cnc2cc(Cn3cnc4ccccc43)ccc2c1 [CKP-36, 7-((1H-Benzo[d]imidazol-1-yl)methyl)quinoline]
melting point: 166 to 168 °C (dec.)

Nc1nc(-c2ccccc2)c(-c2ccc(-c3ccccc3)cc2)s1 [compound 6954709, 5-(4-biphenylyl)-4-phenyl-1,3-thiazol-2-amine]
effect on Spike RBD/ACE2 (19–615) interaction [1]: suppressed the interaction

COc1ccc(Cn2c[n+](C/C=C/c3ccc([N+](=O)[O-])cc3)c3ccccc32)cc1OC.[Br-]
melting point: 146 to 148 °C (dec.)

O=C(c1ccc(NC(=O)C(c2ccccc2)c2ccccc2)cc1)c1ccc(C(=O)O)c(C(=O)O)c1 [compound 6048589, 4-{4-[(diphenylacetyl)amino]benzoyl}phthalic acid]
effect on Spike RBD/ACE2 (19–615) interaction [1]: suppressed the interaction
